Data taken from PubChem BioAssay (NCI).
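Test compounds were applied to cells in 96-well plates for 48 hours at 5 doses. At the TGI there is no net growth.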

Columns and labels:
Experiment in all cases: NCI anticancer screen, dose series, 48 h
786-0 renal = test system: 786-0 renal
A498 renal = test system: A498 renal
A549 NSCLC = test system: A549 NSCLC
ACHN renal = test system: ACHN renal
CAKI-1 renal = test system: CAKI-1 renal
CCRF-CEM leukemia = test system: CCRF-CEM leukemia
COLO 205 colon = test system: COLO 205 colon
DLD-1 colon = test system: DLD-1 colon
EKVX NSCLC = test system: EKVX NSCLC
HCC-2998 colon = test system: HCC-2998 colon
HCT-116 colon = test system: HCT-116 colon
HCT-15 colon = test system: HCT-15 colon
HL-60(TB) leukemia = test system: HL-60(TB) leukemia
HOP-18 NSCLC = test system: HOP-18 NSCLC
HOP-62 NSCLC = test system: HOP-62 NSCLC
HOP-92 NSCLC = test system: HOP-92 NSCLC
HT29 colon = test system: HT29 colon
IGROV1 ovarian = test system: IGROV1 ovarian
K-562 leukemia = test system: K-562 leukemia
KM12 colon = test system: KM12 colon
KM20L2 colon = test system: KM20L2 colon
LOX IMVI melanoma = test system: LOX IMVI melanoma
LXFL 529 NSCLC = test system: LXFL 529 NSCLC
M14 melanoma = test system: M14 melanoma
M19-MEL melanoma = test system: M19-MEL melanoma
MALME-3M melanoma = test system: MALME-3M melanoma
MOLT-4 leukemia = test system: MOLT-4 leukemia
NCI-H226 lung = test system: NCI-H226 lung
NCI-H23 lung = test system: NCI-H23 lung
NCI-H460 lung = test system: NCI-H460 lung
OVCAR-3 ovarian = test system: OVCAR-3 ovarian
OVCAR-4 ovarian = test system: OVCAR-4 ovarian
OVCAR-5 ovarian = test system: OVCAR-5 ovarian
OVCAR-8 ovarian = test system: OVCAR-8 ovarian
RPMI-8226 leukemia = test system: RPMI-8226 leukemia
RXF 393 renal = test system: RXF 393 renal
RXF-631 renal = test system: RXF-631 renal
SF-295 CNS = test system: SF-295 CNS
SF-539 CNS = test system: SF-539 CNS
SK-MEL-2 melanoma = test system: SK-MEL-2 melanoma
SK-MEL-5 melanoma = test system: SK-MEL-5 melanoma
SK-OV-3 ovarian = test system: SK-OV-3 ovarian
SN12C renal = test system: SN12C renal
SNB-19 CNS = test system: SNB-19 CNS
SNB-75 CNS = test system: SNB-75 CNS
SNB-78 CNS = test system: SNB-78 CNS
SW-620 colon = test system: SW-620 colon
TK-10 renal = test system: TK-10 renal
U251 CNS = test system: U251 CNS
UACC-257 melanoma = test system: UACC-257 melanoma
UACC-62 melanoma = test system: UACC-62 melanoma
UO-31 renal = test system: UO-31 renal
XF 498 CNS = test system: XF 498 CNS
DMS 273 small cell lung = test system: DMS 273 small cell lung
NCI-H522 lung = test system: NCI-H522 lung
SF-268 CNS = test system: SF-268 CNS
SK-MEL-28 melanoma = test system: SK-MEL-28 melanoma
DMS 114 small cell lung = test system: DMS 114 small cell lung

Measured: TGI

CCc1c(OC(C)=O)c2c(NC3OCC(OC(C)=O)C(OC(C)=O)C3OC(C)=O)nc(SC)nc2oc1=O (stereo unspecified)
not listed: DMS 273 small cell lung | NCI-H522 lung | SF-268 CNS | SK-MEL-28 melanoma | DMS 114 small cell lung
> 100 µM: all other assays above

COc1ccc(OC)c(N2CC(N)C2=O)c1 (stereo unspecified)
not listed: CAKI-1 renal | DLD-1 colon | LXFL 529 NSCLC | OVCAR-5 ovarian | SNB-78 CNS | DMS 114 small cell lung
> 100 µM: all other assays above

O=c1c(-c2ccccc2)c2oc(c1-c1ccccc1)CSCc1cccc(c1)CSC2
87.4 µM: SK-MEL-28 melanoma
69.1 µM: SNB-75 CNS
60.4 µM: SF-539 CNS
89.8 µM: 786-0 renal
62.4 µM: HOP-62 NSCLC
69.6 µM: A498 renal
70.1 µM: SK-OV-3 ovarian
85.2 µM: SF-268 CNS
88.2 µM: U251 CNS
77 µM: OVCAR-3 ovarian
50.7 µM: RXF 393 renal
not listed: RXF-631 renal | XF 498 CNS
> 100 µM: all other assays above
